Our source for the GI50 and TGI values is PubChem BioAssay (NCI).

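Where inhibition never reached the appropriate level, the endpoint shown equals the highest concentration tested. Otherwise, values were interpolated linearly from a five-concentration, 48-hour dose response in 96-well plates. GI50: concentration for 50% inhibition of growth. Definition used: TGI = concentration required for complete inhibition of growth.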

Experiment in all cases: DTP human tumour cell line panel, 48 h
In experiment [1] the test system is COLO 205 colon.
The subject of experiment [2] is HCT-15 colon.
Experiment [3] relates to NCI-H460 lung.
Experiment [4] has as its system SK-OV-3 ovarian.
The subject of experiment [5] is PC-3 prostate.
Experiment [6] deals with TK-10 renal.
Experiment [7] concerns 786-0 renal.
Experiment [8] deals with SK-MEL-5 melanoma.
The test system of experiment [9] is KM12 colon.
The subject of experiment [10] is HT29 colon.

As to `Nc1c(C(=O)c2cccc(-c3ccc[n+]([O-])c3)c2)cnn1-c1ccc(F)cc1F`, the GI50 in [1], in [2], in experiment [3], in [4], in experiment [5] and in [6] was over 25 µM each time. Also, the GI50 in [7], in [8], in experiment [9] and in experiment [10] was over 25 µM throughout. Further, the TGI in experiment [1], in experiment [2], in experiment [3], in experiment [4], in experiment [5] and in experiment [6] was over 25 µM in each case. Also, the TGI in experiment [7], in [8], in experiment [9] and in [10] was over 25 µM each time.
Regarding `OCc1cccc(-c2ccc3ncc(-c4nc(NC5CC5)ncc4F)n3c2)c1`, the concentration for 50% growth inhibition (GI50) (commonly the concentration giving 50% growth inhibition) in [1] is 0.242 µM; in experiment [2], 0.267 µM; in [3] it was 0.249 µM; in [4], 0.448 µM; in [5] it was 0.314 µM; in [6] it was 0.3 µM. Besides, the concentration for 50% growth inhibition (GI50) in [7] was 0.347 µM; in [8], 0.275 µM; in experiment [9], 0.222 µM; in experiment [10], 0.329 µM. Besides, the TGI (as a rule, the concentration at which net growth stops) was 0.656 µM in experiment [1]; 1.39 µM in experiment [2]; 0.825 µM in [3]; 7.06 µM in experiment [4]; 3.23 µM in experiment [5]; over 100 µM in experiment [6]. For the same compound, the TGI is 3.03 µM in experiment [7], 0.821 µM in [8], 1.21 µM in experiment [9] and over 100 µM in [10].
Take `CCCCCCCCCCCCCC[P+](CCCCCC)(CCCCCC)CCCCCC`: the GI50 in [1] was 0.144 µM; in experiment [2] it was 0.27 µM; in [3], 0.315 µM; in experiment [4], 0.2 µM; in experiment [5], 0.03 µM; in experiment [6], 0.198 µM. Also, the 50% growth inhibitory concentration (GI50) was 0.253 µM in experiment [7], 0.0829 µM in [8], 0.0397 µM in experiment [9] and 0.0527 µM in experiment [10]. In addition, the TGI in experiment [1] is 2.08 µM; in [2], over 100 µM; in [3], 1.22 µM; in [5], 0.125 µM; in experiment [6], 1.92 µM; in experiment [7], 2.1 µM. Also, the concentration for total growth inhibition (TGI) came to 0.258 µM in [8], 0.375 µM in experiment [9] and 3.26 µM in experiment [10].
As to `CCCCCCOc1ccc(/C=N/NC(N)=S)cc1`, the GI50 in experiment [1] was 7.21 µM; in experiment [2] it was 2.69 µM; in experiment [3] it was 10.2 µM; in [4], 27.2 µM; in experiment [5] it was 4.07 µM; in experiment [6] it was 5.54 µM. Besides, the GI50 in experiment [7] is 1.74 µM; in experiment [8], 7.52 µM; in experiment [9], 3.09 µM; in experiment [10] it was 3.21 µM. The concentration for total growth inhibition (TGI) in [1] is 48.5 µM; in experiment [2] it was over 100 µM; in [3], over 100 µM; in experiment [4], over 100 µM; in experiment [5], over 100 µM; in [6], 30.1 µM. The total growth inhibition concentration (TGI) is 6.05 µM in experiment [7], 20.8 µM in experiment [8], 13.6 µM in experiment [9] and over 100 µM in [10].
As to `O=C(Cn1c(=O)c(-c2ccccc2)nc2ccccc21)c1cccnc1`, the GI50 in experiment [1], in experiment [2], in experiment [3], in experiment [4], in experiment [5] and in experiment [6] was over 100 µM in each case. The GI50 in experiment [7], in experiment [8], in [9] and in [10] was over 100 µM each time. The total growth inhibition concentration (TGI) in [1], in [2], in experiment [3], in experiment [4], in experiment [5] and in experiment [6] was over 100 µM each time. For the same compound, the TGI in [7], in experiment [8], in experiment [9] and in experiment [10] was over 100 µM throughout.
As for `c1cc(C2CCCCC2)ccc1OCCCCCCN1CCNCC1`, the GI50 in experiment [1] was 1.96 µM; in [2] it was 1.64 µM; in [3] it was 1.84 µM; in experiment [4], 4.16 µM; in experiment [5], 2.15 µM; in experiment [6], 1.78 µM. Moreover, the GI50 is 2.31 µM in experiment [7], 1.78 µM in [8], 1.98 µM in [9] and 1.45 µM in experiment [10]. The TGI in [1] came out at 3.55 µM; in experiment [2] it was 3.25 µM; in experiment [3] it was 3.43 µM; in experiment [4], 15.2 µM; in experiment [5], 5.97 µM; in experiment [6], 3.24 µM. For the same compound, the TGI in [7] was found to be 5.31 µM; in [8], 3.26 µM; in [9], 3.55 µM; in experiment [10], 2.98 µM.
Regarding `C[C@@H]1COCCN1c1nc(-c2cnc(N)cc2C(F)F)nc(N2[C@H](C)COC[C@@H]2C)n1`, the 50% growth inhibitory concentration (GI50) is 0.371 µM in experiment [1]; 0.236 µM in [2]; 0.179 µM in [3]; 0.166 µM in [4]; 0.215 µM in experiment [5]; 0.209 µM in [6]. For the same compound, the concentration for 50% growth inhibition (GI50) in [7] is 0.272 µM; in [8] it was 0.307 µM; in experiment [9] it was 0.423 µM; in experiment [10], 0.349 µM. For the same compound, the TGI in [1] was determined as 12.5 µM; in experiment [2] it was 12.4 µM; in experiment [3], 12.1 µM; in experiment [4], 1.34 µM; in [5], 14.4 µM; in experiment [6], 4.51 µM. The total growth inhibition concentration (TGI) in [7] turned out to be 12.5 µM; in experiment [8], 2.03 µM; in experiment [9] it was 13.8 µM; in experiment [10] it was 12.9 µM.
On to `CCON=C1C(C)(C)C(C)(C)C(C)(C)C1(C)C`, for which the concentration for total growth inhibition (TGI) in [1], in experiment [2], in [3], in experiment [4], in [5] and in [6] was over 100 µM each time. The TGI in experiment [7], in experiment [8], in [9] and in [10] was over 100 µM in each case.
